Molecular target: T1, integrin αvβ3 (Homo sapiens, UniProt P05106+P06756)
T1 construct: from tissue; host or cells: human placenta
Assay: Integrin αvβ3 assay (competition between vitronectin and test substance for binding to solid phase-bound integrin αvβ3)
Conditions: competition with human vitronectin, integrin αvβ3 from human placenta, comparison in words only
Procedure: For the identification and assessment of integrin αvβ3 ligands, a test system was used which was based on competition between the natural integrin αvβ3 ligand vitronectin and the test substance for binding to solid phase-bound integrin αvβ3.
• Microtiter plates coated with 250 ng/ml of integrin αvβ3 in 0.05 M NaHCO3 pH 9.2; 0.1 ml/well; • saturation with 1% powdered milk/assay buffer; 0.3 ml/well; 0.5 h/RT • 3× washing with 0.05% Tween 20/assay buffer • test substance in 0.1% powdered milk/assay buffer, 50 μl/well 0 μg/ml or […] of human vitronectin (Boehringer Ingelheim T007) in 0.1% powdered milk/assay buffer, 50 μl/well; 1 h/RT • 3× washing with 0.05% Tween 20/assay buffer • 1 μg/ml of anti human vitronectin antibody coupled to peroxidase (Kordia SAVN-APHRP) in 0.1% powdered milk/assay buffer; 0.1 ml/well; 1 h/RT • 3× washing with 0.05% Tween 20/assay buffer • 0.1 ml/well of peroxidase substrate • stop reaction with 0.1 ml/well of 2 M H2SO4 • measurement of the absorption at 450 nm • Integrin αvβ3: Human placenta is solubilized with Nonidet and integrin αvβ3 affinity-purified on a GRGDSPK matrix (elution with EDTA). […]

IC50 values (concentration of the ligand at which 50% of the ligand is displaced): best result
Structure (SMILES): O=C(O)CC1CCN(CC(=O)NCc2ccc(Nc3nc4ccccc4[nH]3)cc2)C(=O)c2ccccc21 (stereo not shown) [Example II, [2-(2-{[4-(1H-Benzimidazol-2-ylamino)benzyl]amino}-2-oxoethyl)-1-oxo-2,3,4,5-tetrahydro-1H-2-benzazepin-5-yl]acetic acid]
